Experimental data from the supplement of paper PMC4862054.

Assays:
Settings in all cases: incubation time: 72 h
BT-474 [1] = test: normalised response (% of control), CellTiter-Glo; higher = more viable cells (100 = DMSO, 0 = benzethonium chloride kill control)
In short: (§1)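 In 384-well plates holding compound at 5 concentrations in 10-fold steps over a 10,000-fold range specific to each compound, breast cancer cell lines were seeded as 20 µl suspension and incubated 72 h. CellTox Green fluorescence was measured at 485/520 nm, after which CellTiter-Glo luminescence was measured following 10 min at room temperature. Plate signals were normalised to 0.1 % DMSO (100) and a positive kill control (0), and each value is the normalised signal at a single concentration.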

BT-549 [2] = test: as above
In short: as §1

CAL-120 [3] = test: as above
In short: as §1

CAL-148 [4] = test: as above
In short: as §1

CAL-51 [5] = test: as above
In short: as §1

CAL-85-1 [6] = test: as above
In short: as §1

DU-4475 [7] = test: as above
In short: as §1

HCC1143 [8] = test: as above
In short: as §1

HCC1599 [9] = test: as above
In short: as §1

HCC1937 [10] = test: as above
In short: as §1

HDQ-P1 [11] = test: as above
In short: as §1

Hs578T [12] = test: as above
In short: as §1

MCF-10A = test: as above
In short: as §1

MDA-MB-231 [13] = test: as above
In short: as §1

MDA-MB-436 [14] = test: as above
In short: as §1

MDA-MB-453 [15] = test: as above
In short: as §1

MDA-MB-468 [16] = test: as above
In short: as §1

MFM-223 [17] = test: as above
In short: as §1

SK-BR-3 [18] = test: as above
In short: as §1

BT-474 [19] = test: normalised viability (% of control), CellTiter-Blue; higher = more viable cells (100 = DMSO, 0 = benzethonium chloride kill control)
In short: (§2)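 Vehicle (100) and a positive kill control (0) anchored the normalisation of each plate, and Z'-factor was used for quality control. Breast cancer cell lines in 20 µl suspension were incubated 72 h over compound in 5 µl medium in 384-well plates, followed by CellTiter-Blue at 560/590 nm. The value is normalised viability at a single listed concentration of the series.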

BT-549 [20] = test: as above
In short: as §2

CAL-120 [21] = test: as above
In short: as §2

CAL-148 [22] = test: as above
In short: as §2

CAL-51 [23] = test: as above
In short: as §2

CAL-85-1 [24] = test: as above
In short: as §2

DU-4475 [25] = test: as above
In short: as §2

HCC1143 [26] = test: as above
In short: as §2

HCC1599 [27] = test: as above
In short: as §2

HCC1937 [28] = test: as above
In short: as §2

HDQ-P1 [29] = test: as above
In short: as §2

Hs578T [30] = test: as above
In short: as §2

MDA-MB-231 [31] = test: as above
In short: as §2

MDA-MB-436 [32] = test: as above
In short: as §2

MDA-MB-453 [33] = test: as above
In short: as §2

MDA-MB-468 [34] = test: as above
In short: as §2

MFM-223 [35] = test: as above
In short: as §2

SK-BR-3 [36] = test: as above
In short: as §2

O=C1CCC(N2C(=O)c3ccccc3C2=O)C(=O)N1 (stereo not drawn) [Thalidomide] (1 nM)
normalised response (BT-474 [1]): 99.2%
normalised response (BT-549 [2]): 104%
normalised response (CAL-120 [3]): 99.3%
normalised response (CAL-148 [4]): 96.4%
normalised response (CAL-51 [5]): 93.9%
normalised response (CAL-85-1 [6]): 100%
normalised response (DU-4475 [7]): 95.1%
normalised response (HCC1143 [8]): 95.5%
normalised response (HCC1599 [9]): 111%
normalised response (HCC1937 [10]): 97.7%
normalised response (HDQ-P1 [11]): 101%
normalised response (Hs578T [12]): 98.2%
normalised response (MCF-10A): 104%
normalised response (MDA-MB-231 [13]): 104%
normalised response (MDA-MB-436 [14]): 101%
normalised response (MDA-MB-453 [15]): 96.6%
normalised response (MDA-MB-468 [16]): 98.5%
normalised response (MFM-223 [17]): 98%
normalised response (SK-BR-3 [18]): 96.8%
normalised viability (BT-474 [19]): 76.9%
normalised viability (BT-549 [20]): 95.2%
normalised viability (CAL-120 [21]): 115%
normalised viability (CAL-148 [22]): 122%
normalised viability (CAL-51 [23]): 86.2%
normalised viability (CAL-85-1 [24]): 109%
normalised viability (DU-4475 [25]): 101%
normalised viability (HCC1143 [26]): 100%
normalised viability (HCC1599 [27]): 104%
normalised viability (HCC1937 [28]): 90%
normalised viability (HDQ-P1 [29]): 110%
normalised viability (Hs578T [30]): 106%
normalised viability (MDA-MB-231 [31]): 88.7%
normalised viability (MDA-MB-436 [32]): 97%
normalised viability (MDA-MB-453 [33]): 108%
normalised viability (MDA-MB-468 [34]): 105%
normalised viability (MFM-223 [35]): 96.1%
normalised viability (SK-BR-3 [36]): 102%

CN[C@@H]1C[C@H]2O[C@@](C)([C@@H]1OC)n1c3ccccc3c3c4c(c5c6ccccc6n2c5c31)C(=O)N[C@H]4O [UCN-01] (1 nM)
normalised response (BT-474 [1]): 97.5%
normalised response (BT-549 [2]): 95.5%
normalised response (CAL-120 [3]): 91.5%
normalised response (CAL-148 [4]): 105%
normalised response (CAL-51 [5]): 78.4%
normalised response (CAL-85-1 [6]): 102%
normalised response (DU-4475 [7]): 109%
normalised response (HCC1143 [8]): 98.7%
normalised response (HCC1599 [9]): 100%
normalised response (HCC1937 [10]): 90.9%
normalised response (HDQ-P1 [11]): 99%
normalised response (Hs578T [12]): 98%
normalised response (MCF-10A): 102%
normalised response (MDA-MB-231 [13]): 103%
normalised response (MDA-MB-436 [14]): 100%
normalised response (MDA-MB-453 [15]): 99.8%
normalised response (MDA-MB-468 [16]): 103%
normalised response (MFM-223 [17]): 102%
normalised response (SK-BR-3 [18]): 109%
normalised viability (BT-474 [19]): 99.2%
normalised viability (BT-549 [20]): 92%
normalised viability (CAL-120 [21]): 82.9%
normalised viability (CAL-148 [22]): 102%
normalised viability (CAL-51 [23]): 98.9%
normalised viability (CAL-85-1 [24]): 87.8%
normalised viability (DU-4475 [25]): 128%
normalised viability (HCC1143 [26]): 95.7%
normalised viability (HCC1599 [27]): 118%
normalised viability (HCC1937 [28]): 82.1%
normalised viability (HDQ-P1 [29]): 69.6%
normalised viability (Hs578T [30]): 106%
normalised viability (MDA-MB-231 [31]): 92%
normalised viability (MDA-MB-436 [32]): 111%
normalised viability (MDA-MB-453 [33]): 99.3%
normalised viability (MDA-MB-468 [34]): 99.8%
normalised viability (MFM-223 [35]): 108%
normalised viability (SK-BR-3 [36]): 104%

Clc1ccc(Nc2nnc(Cc3ccncc3)c3ccccc23)cc1 [Vatalanib] (1 nM)
normalised response (BT-474 [1]): 101%
normalised response (BT-549 [2]): 93.2%
normalised response (CAL-120 [3]): 97.3%
normalised response (CAL-148 [4]): 102%
normalised response (CAL-51 [5]): 99.8%
normalised response (CAL-85-1 [6]): 102%
normalised response (DU-4475 [7]): 104%
normalised response (HCC1143 [8]): 97.1%
normalised response (HCC1599 [9]): 105%
normalised response (HCC1937 [10]): 101%
normalised response (HDQ-P1 [11]): 103%
normalised response (Hs578T [12]): 101%
normalised response (MCF-10A): 110%
normalised response (MDA-MB-231 [13]): 99.1%
normalised response (MDA-MB-436 [14]): 98.9%
normalised response (MDA-MB-453 [15]): 103%
normalised response (MDA-MB-468 [16]): 114%
normalised response (MFM-223 [17]): 108%
normalised response (SK-BR-3 [18]): 111%
normalised viability (BT-474 [19]): 86.8%
normalised viability (BT-549 [20]): 100%
normalised viability (CAL-120 [21]): 84.3%
normalised viability (CAL-148 [22]): 90.5%
normalised viability (CAL-51 [23]): 99.4%
normalised viability (CAL-85-1 [24]): 94.3%
normalised viability (DU-4475 [25]): 97.9%
normalised viability (HCC1143 [26]): 89.5%
normalised viability (HCC1599 [27]): 95.2%
normalised viability (HCC1937 [28]): 78.3%
normalised viability (HDQ-P1 [29]): 91%
normalised viability (Hs578T [30]): 99.8%
normalised viability (MDA-MB-231 [31]): 87.7%
normalised viability (MDA-MB-436 [32]): 125%
normalised viability (MDA-MB-453 [33]): 99.8%
normalised viability (MDA-MB-468 [34]): 98.8%
normalised viability (MFM-223 [35]): 106%
normalised viability (SK-BR-3 [36]): 93.2%

CCC1=C[C@@H]2CN(C1)Cc1c([nH]c3ccccc13)[C@@](C(=O)OC)(c1cc3c(cc1OC)N(C)[C@H]1[C@@](O)(C(=O)OC)[C@H](OC(C)=O)[C@]4(CC)C=CCN5CC[C@]31[C@@H]54)C2 [Vinorelbine] (1 nM)
normalised response (BT-474 [1]): 97.4%
normalised response (BT-549 [2]): 106%
normalised response (CAL-120 [3]): 106%
normalised response (CAL-148 [4]): 108%
normalised response (CAL-51 [5]): 102%
normalised response (CAL-85-1 [6]): 101%
normalised response (DU-4475 [7]): 98.9%
normalised response (HCC1143 [8]): 101%
normalised response (HCC1599 [9]): 107%
normalised response (HCC1937 [10]): 95%
normalised response (HDQ-P1 [11]): 98.1%
normalised response (Hs578T [12]): 97.2%
normalised response (MCF-10A): 108%
normalised response (MDA-MB-231 [13]): 107%
normalised response (MDA-MB-436 [14]): 96.6%
normalised response (MDA-MB-453 [15]): 102%
normalised response (MDA-MB-468 [16]): 101%
normalised response (MFM-223 [17]): 96.5%
normalised response (SK-BR-3 [18]): 95.2%
normalised viability (BT-474 [19]): 104%
normalised viability (BT-549 [20]): 109%
normalised viability (CAL-120 [21]): 94.2%
normalised viability (CAL-148 [22]): 106%
normalised viability (CAL-51 [23]): 98.1%
normalised viability (CAL-85-1 [24]): 98.1%
normalised viability (DU-4475 [25]): 102%
normalised viability (HCC1143 [26]): 96.5%
normalised viability (HCC1599 [27]): 90.2%
normalised viability (HCC1937 [28]): 90.8%
normalised viability (HDQ-P1 [29]): 109%
normalised viability (Hs578T [30]): 113%
normalised viability (MDA-MB-231 [31]): 93.3%
normalised viability (MDA-MB-436 [32]): 101%
normalised viability (MDA-MB-453 [33]): 86.9%
normalised viability (MDA-MB-468 [34]): 99.3%
normalised viability (MFM-223 [35]): 95.6%
normalised viability (SK-BR-3 [36]): 95.2%
